Results: US20240382510A1, “NEW COMBINATION DRUG FOR TREATING CORONAVIRUS INFECTIONS, PHARMACEUTICAL COMPOSITION AND USE THEREOF” (priority 2021, published 2024)
Where two headings read alike, the source gives them in different places.

Key:
[1] = test system: SARS-CoV-2 (hCoV-19/China/CAS-B001/2020); experiment: Synergistic anti-SARS-CoV-2 activity (Example 4), CPE in Vero-E6 cells; format: cell-based; conditions: Severe acute respiratory syndrome coronavirus 2, Vero C1008; wild strain hCoV-19/China/CAS-B001/2020, Vero-E6, CPE after 72 hours
[2] = literature (Beerahee 1999; Alinia prescribing information); cited from earlier work
in vivo = format: in vitro ADME; conditions: plasma
Description: In addition, due to the high plasma protein binding rate of atovaquone and nitazoxanide, both about 99% (refer to Beerahee M Clinical pharmacology of atovaquone and proguanil hydrochloride. [J]. Journal of Travel Medicine, 1999, 6 suppl 1:S13-7.; Alinia™ PRESCRIBING INFORMATION-FDA.). The present application also studied and compared the in vivo plasma protein binding rate of atovaquone and nitazoxanide combined administration and separate administration. […] Compared with alone administration, combined administration will not affect the distribution and elimination of the two drugs in vivo, and competition for plasma protein binding site by one drug will not result in an increase in the free form of another drug.

[3] = rats
Description: Among them, group 4 was converted according to the clinical administration of 3 tablets, and the remaining experimental groups were converted according to the clinical administration of 4 tablets.
A single dose was administered to healthy SD rats, and blood was taken according to the blood collection plan. After sample processing, analysis, and data processing, the plasma concentration-time curves of each group were drawn respectively. The pharmacokinetic parameters of each group of medicines in rats was calculate by WinNonlin 6.1 software.

[4] = literature values; cited from earlier work
SARS-CoV-2 = conditions: anti-SARS-CoV-2, literature values; cited from earlier work
[5] = atovaquone combined with nitazoxanide, read-out: average plasma protein binding rate, combined administration group (converted)
[6] = separate administration, read-out: average plasma protein binding rate, separate administration group (converted)

Structure (SMILES) | EC50 [1] [nM] | plasma protein binding rate [2] | fraction unbound (in vivo; [5]) | fraction unbound (in vivo; [6]) | plasma concentration administered alone vs in combination at the same dose ([3]; single dose 46.6 mg/kg, group 1 vs group 5) | exposure level (AUC0-24h) administered alone compared with combination at the same dose ([3]; single dose) | plasma concentration trend at 16-24 hours, administered alone ([3]; single dose) | plasma concentration trend at 16-24 hours, combined administration ([3]; single dose) | plasma concentration administered alone vs in combination, within 0.5-4 hours after administration ([3]; 13.9 mg/kg, group 3 vs group 5 and group 4) | Plasma concentration [4] [nM] | EC50 (SARS-CoV-2) [nM]
CC(=O)Oc1ccccc1C(=O)Nc1ncc([N+](=O)[O-])s1 [NTZ, o-[N-(5-nitro-1,3-thiazol-2-yl)carbamoyl]phenol acetate] | 4900 | about 99% | 0.0016 | 0.0105 | no obvious difference |  |  |  |  |  | 
O=C1C(O)=C([C@H]2CC[C@H](c3ccc(Cl)cc3)CC2)C(=O)c2ccccc21 [ATQ, 2-(trans-4-(4-chlorophenyl)cyclohexyl)-3-hydroxy-1,4-naphthalenedione] | 2040 | about 99% | 0.0014 | 0.0016 |  | similar | downward trend | flat or rising trend |  |  | 
NC(=O)c1ncn([C@@H]2O[C@H](CO)[C@@H](O)[C@H]2O)n1 [RBV, 1-[(2R,3R,4S,5R)-3,4-dihydroxy-5-(hydroxymethyl)Oxolane-2-yl]-1H-1,2,4-triazole-3-carboxamide] |  |  |  |  |  | slightly greater |  |  | greater |  | 
CC(C)C(=O)OC[C@H]1O[C@@H](n2ccc(NO)nc2=O)[C@H](O)[C@@H]1O [Molnupiravir] |  |  |  |  |  |  |  |  |  | 2090 | 320 to 2030
